Earlier results as cited in article PMC11599114 (Viruses, 2024).
Like-named read-outs stand apart in the source and are kept apart here.

Columns and labels:
INFVA = tested on: INFVA; design: method as in AVPdb; settings: ref AVPdb; for IC50: virus entry
Measles virus(MeV) = settings: VERO/hSLAM
SARS-CoV-2 [1] = settings: SARS-CoV-2, Vero
[2] = tested on: influenza virus(H1N1,VR-1894); settings: H1N1 VR-1894, MDKC
HSV-1 = settings: HSV-1, Vero
SARS-CoV-2 [3] = tested on: SARS-CoV-2; design: method as in 3 sources; settings: SARS-CoV-2 infection, Vero E6
[4] = tested on: human parainfluenza virus 3 (HPIV3); design: method as in ref 16973588; settings: HPIV3 fusion, HeLa
[5] = tested on: human parainfluenza virus 3 (HPIV3); design: method as in ref 16973588; settings: HPIV3 infection, HeLa
influenza A virus(H1N1) = tested on: influenza A virus(H1N1); design: method as in 2 sources; settings: A(H1N1), MDCK
HCoV-229E = settings: Vero
HCoV-OC43 = settings: HCoV-OC43, Vero
HSV-2 = settings: HSV-2, Vero

## AETVESCLAKPHTEN [AVP0967]
INFVA
  IC50: 66 µM

## AGDDQGLDKCVPNSKEK [AVP1195]
INFVA; fusion
  EC50: 3.7 ± 0.35 pM

## AKIXQSLXFIXKSDXLLHNV [DRAVPe00631]
RSV; ref DRAVP
  IC50/EC50: 1.16 ± 0.08 µM

## AVASVPRARGKYWWG [AVP0965]
INFVA
  IC50: 44 µM

## AVSKVLHLEGEVNKISALLSTNKAVVSLSNGVSVLTSKVLDLDNYIDKQLLPIVNK [AVP1971]
RSV; fusion, ref AVPdb
  IC50/EC50: 1.68 µM

## CFVPWFSKFlXRIL [DRAVPe00391]
Measles virus(MeV)
  IC90: 31.1 µM
SARS-CoV-2 [1]
  IC90: 1.89 µM
[2]
  IC90: 5.89 µM
HSV-1
  IC90: 2.19 µM

## CGGFVPWFSKFlXRIL [DRAVPe00392]
Measles virus(MeV)
  IC90: 49.9 µM
SARS-CoV-2 [1]
  IC90: 10.2 µM
[2]
  IC90: 9.9 µM
HSV-1
  IC90: 8.21 µM

## DASISQVNEKINQSLAFIRKSDELLHNVNAGKSTT [AVP0142]
RSV; fusion, ref AVPdb
  IC50/EC50: 8 µM

## DEDLEELERLYRKAEEVAKEAKDASRRGDDERAKEQMERAMRLFDQVFELAQELQEKQTDGNRQKATHLDKAVKEAADELYQRVR [DRAVPe00480]
SARS-CoV-2 [3]
  IC50: 0.035 µM

## DEFDASISQVNEKINQSLAFIRKSDELLHNVNAGK [AVP0139]
RSV; fusion, ref AVPdb
  IC50/EC50: 12 µM

## DFRRLPGAFWQLRQP [AVP0966]
INFVA
  IC50: 52 µM

## DITLNNSVALDPIDISIELNKAKSDLEESKEWIRRSNQKLDSIGN [DRAVPe01310]
[4]
  IC50: 0.5 µM
[5]
  IC50: 0.5 µM

## DPLVFPSDEFDASISQVNEKINQSLAFIRKSDELL [AVP0132]
RSV; fusion, ref AVPdb
  IC50/EC50: 8 µM

## EAIXQSLXFIXKSDXLLHNV [DRAVPe00632]
RSV; ref DRAVP
  IC50/EC50: 0.60 ± 0.02 µM

## EEQAKTFLDK [DRAVPe01627]
SARS-CoV; 100 µM
  inhibition: 25%

## EEQAKTFLDKFNHEAEDLFYQSSGLGKGDFR [DRAVPe01632]
SARS-CoV
  IC50: 0.1 µM

## EFDASISQVNEKINQSLAFIRKSDELLHNVNAGKS [AVP0140]
RSV; fusion, ref AVPdb
  IC50/EC50: 13 µM

## EKAXQSLXFIXKSDXLLHNV [DRAVPe00633]
RSV; ref DRAVP
  IC50/EC50: 1.30 ± 0.89 µM

## EKIAQSLXFIRXSDXLLHXV [DRAVPe00629]
RSV; ref DRAVP
  IC50/EC50: 20.41 ± 2.4 µM

## EKINQSLAFIRKSDELLHNV [DRAVPe00623]
RSV; ref DRAVP
  IC50/EC50: >50 µM

## EKINQSLXFIAXSDXLLHXV [DRAVPe00630]
RSV; ref DRAVP
  IC50/EC50: 175 ± 0.00 µM

## EKIXASLXFIXKSDXLLHNV [DRAVPe00634]
RSV; ref DRAVP
  IC50/EC50: 0.28 ± 0.43 µM

## EKIXQALXFIXKSDXLLHNV [DRAVPe00635]
RSV; ref DRAVP
  IC50/EC50: 0.66 ± 0.26 µM

## EKIXQSAXFIXKSDXLLHNV [DRAVPe00636]
RSV; ref DRAVP
  IC50/EC50: 0.95 ± 0.53 µM

## EKIXQSLXAIXKSDXLLHNV [DRAVPe00637]
RSV; ref DRAVP
  IC50/EC50: 1.39 ± 0.10 µM

## EKIXQSLXFAXKSDXLLHNV [DRAVPe00638]
RSV; ref DRAVP
  IC50/EC50: 10.44 ± 2.97 µM

## EKIXQSLXFIXASDXLLHNV [DRAVPe00639]
RSV; ref DRAVP
  IC50/EC50: 10.93 ± 13.90 µM

## EKIXQSLXFIXKADXLLHNV [DRAVPe00640]
RSV; ref DRAVP
  IC50/EC50: 82.04 ± 1.56 µM

## EKIXQSLXFIXKSAXLLHNV [DRAVPe00641]
RSV; ref DRAVP
  IC50/EC50: 1.10 ± 0.08 µM

## EKIXQSLXFIXKSDXALHNV [DRAVPe00642]
RSV; ref DRAVP
  IC50/EC50: 0.88 ± 0.06 µM

## EKIXQSLXFIXKSDXLLANV [DRAVPe00643]
RSV; ref DRAVP
  IC50/EC50: 0.52 ± 0.07 µM

## EKIXQSLXFIXKSDXLLHAV [DRAVPe00644]
RSV; ref DRAVP
  IC50/EC50: 2.71 ± 2.93 µM

## EKIXQSLXFIXKSDXLLHNA [DRAVPe00645]
RSV; ref DRAVP
  IC50/EC50: 0.60 ± 0.03 µM

## ELEEQVMHVLDQVSELAHELLHKLTGEELERAAYFNWWATEMMLELIKSDDEREIREIEEEARRILEHLEELARK [DRAVPe00481]
SARS-CoV-2 [3]
  IC50: 0.0155 µM

## EXINXSLXFIRXSDALLHNV [DRAVPe00646]
RSV; ref DRAVP
  IC50/EC50: 1.00 ± 0.03 µM

## EXINXSLXFIRXSDELLHNV [DRAVPe00626]
RSV; ref DRAVP
  IC50/EC50: 0.59 ± 0.13 µM

## FDASISQVNEKINQSLAFIRKSDELLHNVNAGKST [AVP0143]
RSV; fusion, ref AVPdb
  IC50/EC50: 0.051 µM

## FFVIFYRRKK [AVP1808]
INFVA
  IC50: 1.48 µM

## FINGRWDSQCHRFSNGAIACA [DRAVPe01800]
Influenza A virus(H1N1)
  IC50: 6.6 µg/mL

## FPSDEFDASISQVNEKINQSLAFIRKSDELLHNVN [AVP0136]
RSV; fusion, ref AVPdb
  IC50/EC50: 8 µM

## FVPWFSKFlGRIL [DRAVPe00377]
HCoV-229E
  IC90: 30.1 µM
HCoV-OC43
  IC90: 15 µM
HSV-2
  IC90: 16.7 µM
SARS-CoV-2 [1]
  IC90: 12.1 µM
HSV-1
  IC90: 18.7 µM

## FVPWFSKFlPRIL [DRAVPe00378]
HCoV-OC43
  IC90: 24.1 µM
HSV-2
  IC90: 19.2 µM
SARS-CoV-2 [1]
  IC90: 14 µM
HSV-1
  IC90: 18.8 µM

## FVPWFSKFlWRIL [DRAVPe00385]
HCoV-229E
  IC90: 50 µM
HCoV-OC43
  IC90: 24.2 µM
HSV-2
  IC90: 12.5 µM
SARS-CoV-2 [1]
  IC90: 27.7 µM
HSV-1
  IC90: 8.25 µM
